Several values for one entry are separate records, joined by “and”; a condition that tells them apart may be missing. Equal entries are not always repeated.
What was measured:
Format in all cases: binding
VC0430 (VcGluP) wildtype [1] = target: T1, VC0430 (VcGluP) wildtype (Vibrio cholerae, UniProt Q9KUT5)
VC0430 (VcGluP) wildtype [2] = target: T1, VC0430 (VcGluP) wildtype; experiment: biochemical
VcGluP Y45A = VcGluP Y45A (Vibrio cholerae, UniProt Q9KUT5, Y45A)
VcGluP E125A = VcGluP E125A (Vibrio cholerae, UniProt Q9KUT5, E125A)
VcGluP S75A = VcGluP S75A (Vibrio cholerae, UniProt Q9KUT5, S75A)
VcGluP Q93A = VcGluP Q93A (Vibrio cholerae, UniProt Q9KUT5, Q93A)
VcGluP M201A = VcGluP M201A (Vibrio cholerae, UniProt Q9KUT5, M201A)
VcGluP Y200A = VcGluP Y200A (Vibrio cholerae, UniProt Q9KUT5, Y200A)

Row | SMILES | Average Tm (VC0430 (VcGluP) wildtype [1]) | Tm Replicate 1 (VC0430 (VcGluP) wildtype [1]) | Tm Replicate 2 (VC0430 (VcGluP) wildtype [1]) | Tm Replicate 3 (VC0430 (VcGluP) wildtype [1]) | change in VC0430's Tm (Tm increase) (VC0430 (VcGluP) wildtype [1]) | Kd (VC0430 (VcGluP) wildtype [2]) [µM] | also measured
1 | O=C(O)CCCCC(=O)O [adipate] | 44.74 °C | 43.75 °C | 45.74 °C | 44.74 °C | no change | – | –
2 | NC(=O)CC[C@H](N)C(=O)O [L-glutamine] | – | – | 50.70 °C and 53.68 °C and 55.67 °C and 50.71 °C | – | – | 11 ± 2 | –
3 | N[C@@H](CCC(=O)O)C(=O)O [L-glutamate] | – | – | – | – | – | 0.065 ± 0.031 | ligand concentration giving maximum fluorescence enhancement (VcGluP Y45A): ≤ 50 µM; ligand concentration giving maximum fluorescence enhancement (VcGluP E125A): ≤ 50 µM; ligand concentration giving maximum fluorescence enhancement (VcGluP S75A): ≤ 50 µM; ligand concentration needed to saturate fluorescence enhancement (VcGluP Q93A): a higher concentration was required; ligand concentration giving maximum fluorescence enhancement (VcGluP M201A): ≤ 50 µM; ligand concentration giving maximum fluorescence enhancement (VcGluP Y200A): ≤ 50 µM
4 | O=C(O)[C@@H]1CCC(O)=N1 [L-pyroglutamate] | – | – | – | – | – | 50 ± 16 | effect on VcGluP's stability (DSF) (VC0430 (VcGluP) wildtype [1]): enhanced VcGluP’s stability in a dose-dependent manner
5 | NC(=O)CCC(N)C(=O)O (stereo in doubt) [D-glutamine] | 46.40 °C and 47.06 °C and 48.72 °C | 46.73 °C and 46.72 °C and 48.72 °C | 45.74 °C and 47.72 °C and 48.72 °C | 46.73 °C (2×) and 48.72 °C | – | – | fluorescence enhancement in titration (Kd could not be determined) (VC0430 (VcGluP) wildtype [2]): lack of fluorescence enhancement
6 | N[C@H](CCC(=O)O)C(=O)O [D-glutamate] | 58.65 °C | 58.65 °C | 58.65 °C | 58.65 °C | – | 24.5 ± 10.6 | –
7 | O=C(O)CCC(=O)C(=O)O [α-ketoglutarate] | 47.39 °C | 50.71 °C | 45.74 °C | 45.74 °C | no change | – | –
8 | NCCCC[C@H](N)C(=O)O [L-lysine] | 44.41 °C | 43.75 °C | 44.74 °C | 44.74 °C | no change | – | –
9 | N[C@@H](CC(=O)O)C(=O)O [L-aspartate] | 47.06 °C | 47.72 °C | 45.74 °C | 47.73 °C | no change | – | –

Source: paper PMC11574862 (The Journal of General Physiology, 2024)
